Measurements published in patent publication US5110808A, “Amide derivatives, compositions and use” (Imperial Chemical Industries, PLC, priority 1990, dated 1992).

Key:
aldose reductase [1] = test: Reduction of sciatic nerve sorbitol in streptozotocin-diabetic rats (inhibition of aldose reductase in vivo); parameters: species or system rat; conditions: after 5 daily oral doses of 3 mg/kg
Experimental: Rats are made diabetic (as evidenced by severe glucosuria being present) by dosing with streptozotocin. The animals are then dosed daily with the test compound for one, two or five days. The animals are then sacrificed 2-6 hours after the final dose and the eye lenses and/or sciatic nerves are removed. After a standard work-up procedure the residual sorbitol levels in each tissue are determined by gas liquid chromatography after conversion to the polytrimethylsilyl derivatives. Inhibition of aldose reductase in vivo can then be assessed by comparing the residual sorbitol levels in tissues from the dosed diabetic group of rats with those of an undosed group of diabetic rats and an undosed, normal group of rats.
In a variation of the above test diabetic rats are dosed at a fixed daily oral dose for five days and then sacrificed 6 hours aftre the final dose and the reduction of sciatic nerve sorbitol assessed relative to that in control animals.

aldose reductase [2] = biological target: T1, aldose reductase (Bos taurus, UniProt P16116); test: In vitro inhibition of partially purified aldose reductase from bovine lenses, spectrophotometric; format: biochemical
T1 construct: partially purified aldose reductase is isolated in known manner from bovine lenses; from tissue; host or cells: bovine lens
Text: Thus, in a standard procedure partially purified aldose reductase is isolated in known manner from bovine lenses. The percentage inhibition of this enzyme's ability in vitro to catalyse the reduction of aldoses to polyhydric alcohols, and particularly to reduce glucose to sorbitol, caused by a test compound can then be determined using standard spectrophotometric methods.

IC50 (aldose reductase [2]): ~60 nM
Structure (SMILES): Cc1cc(NC(=O)C(=O)N(C(C)C)C(C)C)cc(C)c1S(=O)(=O)C[N+](=O)[O-] [Example 2, N,N-di-isopropyl-N'-[3,5-dimethyl-4-(nitromethylsulfonyl)phenyl]oxamide]
reduction in sciatic nerve sorbitol levels (aldose reductase [1]): 82%
